For eight molecules, IC50 results are on record in US11084800B2 (Achillion Pharmaceuticals, Inc., priority 2017, dated 2021).

Human Factor D, sequence (P00746 26-253): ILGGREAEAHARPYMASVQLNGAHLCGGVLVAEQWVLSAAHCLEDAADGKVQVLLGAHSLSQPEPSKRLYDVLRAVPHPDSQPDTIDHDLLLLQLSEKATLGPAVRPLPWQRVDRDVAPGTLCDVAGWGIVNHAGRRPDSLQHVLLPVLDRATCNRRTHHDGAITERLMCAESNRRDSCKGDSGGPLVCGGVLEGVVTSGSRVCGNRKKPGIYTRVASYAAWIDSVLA

For the assay, the target named is Human Factor D (Homo sapiens (Human), UniProt P00746). The experiment in a line: Human Factor D Assay. The class given is biochemical. The following applies: Factor D inhibition, assay of Example 10; read-out: IC5 (Stars). The procedure, abridged:
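Thioester substrate Z-L-Lys-SBz (100 μM) with Ellman's reagent DTNB (100 μM) reports activity of 80 nM human serum-derived enzyme, kinetically at 405 nm over 30 min. Compound preincubated 5 min, room temperature, pH 7.5 Tris/1 M NaCl; IC50 by nonlinear fit of rates.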
For the molecule `CC(=O)c1nn(CC(=O)N2[C@H](C(=O)Nc3nc(Br)ccc3CN3CC(F)C3)C[C@@]3(C)C[C@@H]23)c2ccc(-c3cnc(C)nc3)cc12` [Compound 364, (1R,3S,5R)-2-(2-(3-acetyl-5-(2-methylpyrimidin-5-yl)-1H-indazol-1-yl)acetyl)-N-(6-bromo-3-((3-fluoroazetidin-1-yl)methyl)pyridin-2-yl)-5-methyl-2-azabicyclo[3.1.0]hexane-3-carboxamide], the IC50 is < 1 µM.

Consider `CC(=O)c1nn(CC(=O)N2[C@H](C(=O)Nc3nc(Br)ccc3CC#N)C[C@@]3(C)C[C@@H]23)c2c(C)cc(-c3cnc(C)nc3)cc12` [Compound 365, (1R,3S,5R)-2-(2-(3-acetyl-7-methyl-5-(2-methylpyrimidin-5-yl)-1H-indazol-1-yl)acetyl)-N-(6-bromo-3-(cyanomethyl)pyridin-2-yl)-5-methyl-2-azabicyclo[3.1.0]hexane-3-carboxamide], for which the IC50 is < 1 µM.

For `CC(=O)c1nn(CC(=O)N2[C@H](C(=O)Nc3nc(Br)ccc3C)C[C@@]3(CN4CC5(CC5)C4)C[C@@H]23)c2c(C)cc(-c3cnc(C)nc3)cc12` [Compound 366, (1R,3S,5R)-5-(5-azaspiro[2.3]hexan-5-ylmethyl)-2-(2-(3-acetyl-7-methyl-5-(2-methylpyrimidin-5-yl)-1H-indazol-1-yl)acetyl)-N-(6-bromo-3-methylpyridin-2-yl)-2-azabicyclo[3.1.0]hexane-3-carboxamide], the IC50 was < 1 µM.

As to `Cc1ncc(-c2ccc3c(c2)c(CC#N)nn3CC(=O)N2[C@H](C(=O)Nc3nc(Br)ccc3C)C[C@@]3(C)C[C@@H]23)cn1` [Compound 367, (1R,3S,5R)-N-(6-bromo-3-methylpyridin-2-yl)-2-(2-(3-(cyanomethyl)-5-(2-methylpyrimidin-5-yl)-1H-indazol-1-yl)acetyl)-5-methyl-2-azabicyclo[3.1.0]hexane-3-carboxamide], the IC50 was > 10 µM.

Regarding `Cc1ncc(-c2ccc3c(c2)c(C(C)(C)C#N)nn3CC(=O)N2[C@H](C(=O)Nc3nc(Br)ccc3C)C[C@@]3(C)C[C@@H]23)cn1` [Compound 368, (1R,3S,5R)-N-(6-bromo-3-methylpyridin-2-yl)-2-(2-(3-(2-cyanopropan-2-yl)-5-(2-methylpyrimidin-5-yl)-1H-indazol-1-yl)acetyl)-5-methyl-2-azabicyclo[3.1.0]hexane-3-carboxamide], the IC50 was > 10 µM.

With `CC(=O)c1nn(CC(=O)N2[C@H](C(=O)Nc3nc(Br)ccc3C)C[C@@]3(CN4CC5(CC5)C4)C[C@@H]23)c2c(CF)cc(-c3cnc(C)nc3)cc12` [Compound 369, (1R,3S,5R)-5-(5-azaspiro[2.3]hexan-5-ylmethyl)-2-(2-(3-acetyl-7-(fluoromethyl)-5-(2-methylpyrimidin-5-yl)-1H-indazol-1-yl)acetyl)-N-(6-bromo-3-methylpyridin-2-yl)-2-azabicyclo[3.1.0]hexane-3-carboxamide], the IC50 is < 1 µM.

In the case of `CC(=O)c1nn(CC(=O)N2[C@H](C(=O)Nc3nc(Br)ccc3C)C[C@@]3(CN4CC5(CC5)C4)C[C@@H]23)c2c(C)nc(-c3cnc(C)nc3)cc12` [Compound 370, (1R,3S,5R)-5-(5-azaspiro[2.3]hexan-5-ylmethyl)-2-(2-(3-acetyl-7-methyl-5-(2-methylpyrimidin-5-yl)-1H-pyrazolo[3,4-c]pyridin-1-yl)acetyl)-N-(6-bromo-3-methylpyridin-2-yl)-2-azabicyclo[3.1.0]hexane-3-carboxamide], the IC50 is < 1 µM.

Take `CC(=O)c1nn(CC(=O)N2[C@H](C(=O)Nc3nc(Br)ccc3C)C[C@@]3(Cc4nc(C)no4)C[C@@H]23)c2c(C)cc(-c3cnc(C)nc3)cc12` [Compound 372, (1R,3S,5R)-2-(2-(3-acetyl-7-methyl-5-(2-methylpyrimidin-5-yl)-1H-indazol-1-yl)acetyl)-N-(6-bromo-3-methylpyridin-2-yl)-5-((3-methyl-1,2,4-oxadiazol-5-yl)methyl)-2-azabicyclo[3.1.0]hexane-3-carboxamide]: the IC50 is < 1 µM.
